Measurements: patent US9394290B2, “Selective CYP11B1 inhibitors for the treatment of cortisol dependent diseases” (UNIVERSITAET DES SAARLANDES CAMPUS SAARBRUECKEN, priority 2010, dated 2016)

Assays:
human CYP11B2 = human CYP11B2 (Homo sapiens (Human), UniProt P19099); assay: Cellular assay for CYP11B2 inhibition (V79MZh11B2 hamster fibroblasts, substrate 11-deoxycorticosterone); settings: for IC50: read-out: IC50 value CYP11B2, Hamster fibroblasts expressing human CYP11B2, 100 nM, mean of at least three experiments, n.i. = no inhibition at an inhibitor concentration of 500 nM
Chain of human CYP11B2 (P19099 25-503): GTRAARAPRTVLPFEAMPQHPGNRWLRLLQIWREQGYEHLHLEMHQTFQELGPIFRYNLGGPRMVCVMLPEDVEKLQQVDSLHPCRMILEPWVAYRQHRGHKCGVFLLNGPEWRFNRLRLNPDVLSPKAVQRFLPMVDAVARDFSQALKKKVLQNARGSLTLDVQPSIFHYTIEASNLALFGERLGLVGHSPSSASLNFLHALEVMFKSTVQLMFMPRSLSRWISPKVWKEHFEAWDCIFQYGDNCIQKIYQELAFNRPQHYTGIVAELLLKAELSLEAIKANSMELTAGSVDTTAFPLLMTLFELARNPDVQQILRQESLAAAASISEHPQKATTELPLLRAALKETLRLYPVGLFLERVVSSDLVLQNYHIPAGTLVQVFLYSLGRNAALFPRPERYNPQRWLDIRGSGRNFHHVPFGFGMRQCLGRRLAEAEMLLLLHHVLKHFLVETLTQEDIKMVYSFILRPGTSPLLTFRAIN

human CYP11B1 = human CYP11B1 (Homo sapiens (Human), UniProt P15538); assay: Cellular assay for CYP11B1 inhibition (V79MZh11B1 hamster fibroblasts, substrate 11-deoxycorticosterone); settings: for sf: selectivity factor: IC50 (CYP11B2)/IC50 (CYP11B1): ratio IC50 (CYP11B2)/IC50 (CYP11B1); for IC50: read-out: IC50 value CYP11B1, Hamster fibroblasts expressing human CYP11B1, substrate 11-deoxycorticosterone, 100 nM, mean of at least three experiments
Chain of human CYP11B1 (P15538 25-503): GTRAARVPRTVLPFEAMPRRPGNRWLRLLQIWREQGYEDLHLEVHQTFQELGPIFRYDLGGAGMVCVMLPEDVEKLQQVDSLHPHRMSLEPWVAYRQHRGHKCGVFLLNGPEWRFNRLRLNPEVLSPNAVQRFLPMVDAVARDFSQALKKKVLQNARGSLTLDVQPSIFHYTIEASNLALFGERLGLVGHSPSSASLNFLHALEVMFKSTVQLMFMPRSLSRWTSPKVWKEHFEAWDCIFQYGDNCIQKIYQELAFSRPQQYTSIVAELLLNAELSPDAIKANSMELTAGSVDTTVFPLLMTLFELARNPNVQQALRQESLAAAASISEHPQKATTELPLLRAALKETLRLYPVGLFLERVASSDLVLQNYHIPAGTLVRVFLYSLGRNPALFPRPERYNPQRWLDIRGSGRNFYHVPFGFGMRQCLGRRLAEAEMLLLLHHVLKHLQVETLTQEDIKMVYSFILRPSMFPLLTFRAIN

human CYP17 = human CYP17 (Homo sapiens (Human), UniProt P05093); assay: CYP17 inhibition assay (membrane fraction of E. coli expressing human CYP17, substrate progesterone); assay type: biochemical; settings: 25 μM, inhibitor concentration 2.0 μM, read-out: inhibition (%) CYP 17
Chain of human CYP17 (P05093 whole entry): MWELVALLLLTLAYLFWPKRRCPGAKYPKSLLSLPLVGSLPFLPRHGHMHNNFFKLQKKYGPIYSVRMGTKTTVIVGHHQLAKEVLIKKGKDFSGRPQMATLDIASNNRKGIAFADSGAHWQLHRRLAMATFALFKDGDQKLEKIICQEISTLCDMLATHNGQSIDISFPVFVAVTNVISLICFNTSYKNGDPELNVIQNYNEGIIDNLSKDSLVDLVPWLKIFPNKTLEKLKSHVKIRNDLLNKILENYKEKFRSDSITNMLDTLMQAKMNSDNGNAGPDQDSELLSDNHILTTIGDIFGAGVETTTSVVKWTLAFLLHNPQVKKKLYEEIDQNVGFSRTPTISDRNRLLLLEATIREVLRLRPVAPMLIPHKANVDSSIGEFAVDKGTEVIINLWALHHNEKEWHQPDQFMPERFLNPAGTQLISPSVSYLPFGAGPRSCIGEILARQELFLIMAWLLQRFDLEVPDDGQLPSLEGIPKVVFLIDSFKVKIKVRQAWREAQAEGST
Description: Recombinant E. coli pJL17/OR coexpressing human CYP17 and rat NADPH-P450-reductase were grown and stored as described by Ehmer et al. (J. Steroid Biochem. Mol. Biol., 2000, 75, 57-63)
For isolation of membrane fractions, 5 ml of bacterial suspension with an OD578 of 50 were washed using phosphate buffer (0.05 M, pH 7.4, 1 mM MgCl2, 0.1 mM EDTA and 0.1 mM dithiothreitol). Bacteria were harvested by centrifugation (2000×g) and the pellet was resuspended in 10 ml ice-cold TES buffer (0.1 M tris-acetate, pH 7.8, 0.5 mM EDTA, 0.5 M sucrose). Lysozyme was added with 10 ml of ice-cold water resulting in a concentration of 0.2 mg/ml followed by incubation for 30 min on ice with continuous shaking. Spheroplasts were harvested by centrifugation (12000×g, 10 min), and resuspended in 4 ml of ice-cold phosphate buffer (the same as described above plus 0.5 mM phenylmethylsulfonylfluoride (PMSF)).
After that spheroplasts were sonicated on ice (pulse 20 s on, 30 s off, five times), using a sonicator Sonopuls HD60 (Bandelin, Berlin, Germany) at maximum power. Unbroken cells and debris were pelleted at 3000×g for 7 min, and the supernatant was centrifuged at 50000×g for 20 min at 4° C. The membrane pellet was resuspended in 2 ml of phosphate buffer (the same as described above) with 20% glycerol using an ultra-turrax T25 (IKA-Labortechnik, Staufen, Germany). Protein concentration was determined by the method of Lowry.
The assay was performed as follows: a solution of 6.25 nmol progesterone (in 5 μl methanol) in 140 μl phosphate buffer (0.05 M, pH 7.4, 1 mM MgCl2, 0.1 mM EDTA and 0.1 mM dithiothreitol), 50 μl NADPH generating system (in phosphate buffer with 10 mM NADP, 100 mM glucose-6-phosphate and 2.5 units of glucose-6-phosphate-dehydrogenase) and inhibitor (in 5 μl DMSO) was pre-incubated at 37° C. for 5 min. Control cups were supplemented with 5 μl DMSO without inhibitor. The reaction was started by adding 50 μl of a 1:5 diluted membrane suspension in phosphate buffer (0.8-1.0 mg protein per ml). The maximum DMSO concentration in each sample was 2%. After mixing, incubation was performed for 30 min at 37° C. Subsequently the reaction was stopped with 50 μl 1 N HCl.
Extraction of the steroids was performed by addition of 1.0 ml ethyl acetate and vigorous shaking for 1 min. After a centrifugation step (5 min, 2500×g) the organic phase (0.9 ml) was transferred into a fresh cup containing 0.25 ml of incubation buffer and 50 μl 1 N HCl and mixed again. After centrifugation, 0.8 ml ethyl acetate solution was evaporated to dryness in a fresh cup. After that the steroids were redissolved in solvent for HPLC analysis (Hutschenreuter et. al. J. Enz. Inhib. Med. Chem. 2004, 19, 17-32).
The above experiment was conducted at least three times and a mean value for the CYP17 inhibition calculated.

Human placental CYP19 = Human placental CYP19 (Homo sapiens (Human), UniProt P11511); assay: CYP19 (aromatase) assay, human placental microsomes, 3H2O release; assay type: biochemical; settings: substrate androstenedione, 500 nM, inhibitor concentration 500 nM, read-out: inhibition (%) CYP 19
Chain of Human placental CYP19 (P11511 whole entry): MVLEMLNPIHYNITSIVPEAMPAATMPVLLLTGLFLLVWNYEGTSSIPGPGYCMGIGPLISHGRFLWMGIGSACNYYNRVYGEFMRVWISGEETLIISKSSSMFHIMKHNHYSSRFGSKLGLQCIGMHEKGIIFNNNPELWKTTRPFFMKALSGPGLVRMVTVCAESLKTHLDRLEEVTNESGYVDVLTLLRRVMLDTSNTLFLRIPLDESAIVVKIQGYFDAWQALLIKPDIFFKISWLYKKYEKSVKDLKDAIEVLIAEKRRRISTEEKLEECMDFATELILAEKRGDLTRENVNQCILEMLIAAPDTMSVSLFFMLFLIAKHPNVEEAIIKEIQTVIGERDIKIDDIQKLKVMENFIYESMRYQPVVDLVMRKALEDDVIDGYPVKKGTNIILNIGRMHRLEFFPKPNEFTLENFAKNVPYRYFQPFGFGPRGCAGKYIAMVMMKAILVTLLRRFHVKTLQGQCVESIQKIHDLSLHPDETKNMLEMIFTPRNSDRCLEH
Description: The enzyme was obtained from the microsomal fraction of freshly delivered human term placental tissue according to the procedure of Thompson and Siiteri (Thompson, E. A.; Siiteri, P. K. J. Biol. Chem. 1974, 249, 5364).
The isolated microsomes were suspended in a minimum volume of phosphate buffer (0.05 M, pH 7.4, 20% glycerol). Additionally, DTT (dithiothreitol, 10 mM) and EDTA (1 mM) were added to protect the enzyme from degradation. The enzyme preparation was stored at −70° C.
The assay was performed monitoring enzyme activity by measuring the ^3H2O formed from [1β-^3H]androstenedione during aromatization (Hartmann et al. J. Med. Chem. 1986, 29, 1362-1369). […] The test compounds were dissolved in DMSO and diluted with buffer. The final DMSO concentration in the control and inhibitor incubation was 2%. Each tube was pre-incubated for 5 min at 30° C. in a water bath. Microsomal protein was added to start the reaction (0.1 mg). The total volume for each incubation was 0.25 ml. The reaction was terminated by the addition of 200 μl of a cold 1 mM HgCl2 solution. After addition of 200 μl of an aqueous dextran-coated charcoal (DCC) suspension (2%), the vials were shaken for 20 min and centrifuged at 1500×g for 5 min to separate the charcoal-absorbed steroids. The supernatant was assayed for ^3H2O by counting in a scintillation mixture using a β-counter. The calculation of the IC50 values was performed by plotting the percent inhibition vs. the concentration of inhibitor on a semi-log plot.
The above experiment was conducted at least three times and a mean value for the CYP19 inhibition calculated.

Row | SMILES | IC50 (human CYP11B2) | sf: selectivity factor: IC50 (CYP11B2)/IC50 (CYP11B1) (human CYP11B1) | IC50 (human CYP11B1) | inhibition at 2 µM (human CYP17) | inhibition at 0.5 µM (Human placental CYP19) | IC50 value CYP11B2 (human CYP11B2; Hamster fibroblasts expressing human CYP11B2, 100 nM, mean of at least three experiments, n.i. = no inhibition at an inhibitor concentration of 500 nM)
1 | c1ccc(-c2ccc(Cn3ccnc3)cn2)cc1 [Compound 1, 5-Imidazol-1-ylmethyl-2-phenyl-pyridine] | 2770 nM | 18 | 152 nM |  |  | 
2 | Brc1ccc(Cn2ccnc2)cn1 [Compound 1a, 5-Imidazol-1-ylmethyl-2-bromopyridine] | > 1000 nM |  | 500 nM |  |  | 
3 | c1cc(Cn2ccnc2)ccn1 [Compound 2, 4-Imidazol-1-ylmethyl-pyridine] | > 1000 nM |  | 663 nM |  |  | 
4 | c1cncc(Cn2ccnc2)c1 [Compound 3, 3-Imidazol-1-ylmethyl-pyridine] | > 1000 nM |  | 816 nM |  |  | 
5 | N#Cc1ncccc1Cn1ccnc1 [Compound 4, 3-Imidazol-1-ylmethyl-pyridine-2-carbonitrile] | > 1000 nM |  | 971 nM |  |  | 
6 | Brc1ncccc1Cn1ccnc1 [Compound 5, 2-Bromo-3-imidazol-1-ylmethyl-pyridine] | 911 nM | 15 | 61 nM | 3% | 2% | 
7 | Clc1ncc(Cn2ccnc2)cc1Br [Compound 6, 3-Bromo-2-chloro-5-imidazol-1-ylmethyl-pyridine] | 576 nM | 3.4 | 168 nM |  |  | 
8 | Fc1ccccc1-c1ccc(Cn2ccnc2)cn1 [Compound 7, 2-(2-Fluoro-phenyl)-5-imidazol-1-ylmethyl-pyridine] | 1740 nM | 24 | 72 nM | 3% | 0% | 
9 | Fc1cccc(-c2ccc(Cn3ccnc3)cn2)c1 [Compound 8, 2-(3-Fluoro-phenyl)-5-imidazol-1-ylmethyl-pyridine] | > 1000 nM |  | 320 nM | 1% |  | 
10 | Fc1ccc(-c2ccc(Cn3ccnc3)cn2)cc1 [Compound 9, 2-(4-Fluoro-phenyl)-5-imidazol-1-ylmethyl-pyridine] | 2150 nM | 10 | 213 nM | 5% |  | 
11 | Fc1ccc(-c2ccc(Cn3ccnc3)cn2)cc1F [Compound 10, 2-(3,4-Difluoro-phenyl)-5-imidazol-1-ylmethyl-pyridine] | 1660 nM | 5 | 329 nM | 0% |  | 
12 | Oc1ccc(-c2ccc(Cn3ccnc3)cn2)cc1F [Compound 11, 2-Fluoro-4-(5-imidazol-1-ylmethyl-pyridin-2-yl)-phenol] | 237 nM | 14 | 17 nM | 2.6% | 0% | 
13 | COc1ccc(-c2ccc(Cn3ccnc3)cn2)cc1 [Compound 13, 5-Imidazol-1-ylmethyl-2-(4-methoxy-phenyl)pyridine] | > 1000 nM |  | 782 nM | 0% |  | 
14 | COc1ccc(-c2ccc(Cn3ccnc3)cn2)cc1OC [Compound 14, 2-(3,4-Dimethoxy-phenyl)-5-imidazol-1-ylmethyl-pyridine] | > 1000 nM |  | > 1000 nM | 2% |  | 
15 | N#Cc1cccc(-c2ccc(Cn3ccnc3)cn2)c1 [Compound 19, 3-(5-Imidazol-1-ylmethyl-pyridin-2-yl)-benzonitrile] | > 1000 nM |  | 409 nM |  |  | 
16 | N#Cc1ccc(-c2ccc(Cn3ccnc3)cn2)cc1 [Compound 20, 4-(5-Imidazol-1-ylmethyl-pyridin-2-yl)-benzonitrile] | > 1000 nM |  | 782 nM |  |  | 
17 | O=Cc1ccc(-c2ccc(Cn3ccnc3)cn2)cc1 [Compound 21, 4-(5-Imidazol-1-ylmethyl-pyridin-2-yl)-benzaldehyde] | > 1000 nM |  | 246 nM | 0% |  | 
18 | c1ccc2cc(-c3ccc(Cn4ccnc4)cn3)ccc2c1 [Compound 24, 5-Imidazol-1-ylmethyl-2-naphthalen-2-yl-pyridine] | 782 nM | 3.2 | 246 nM |  |  | 
19 | c1cncc(-c2ccc(Cn3ccnc3)cn2)c1 [Compound 26, 5-Imidazol-1-ylmethyl-[2,3′]bipyridinyl] | 3960 nM | 8 | 502 nM |  |  | 
20 | c1cc(-c2ccc(Cn3ccnc3)cn2)ccn1 [Compound 27, 5-Imidazol-1-ylmethyl-[2,4′]bipyridinyl] | 487 nM | 3.5 | 139 nM |  |  | 
21 | c1cn(Cc2ccc(-c3cncnc3)nc2)cn1 [Compound 28, 5-(5-Imidazol-1-ylmethyl-pyridin-2-yl)-pyrimidine] |  |  | 971 nM |  |  | n.i.^d
22 | COc1ccc(-c2ccc(Cn3ccnc3)cn2)cn1 [Compound 29, 5-Imidazol-1-ylmethyl-6′-methoxy-[2,3′]bipyridinyl] | > 1000 nM |  | > 1000 nM |  |  | 
23 | c1ccc2c(-c3ccc(Cn4ccnc4)cn3)cncc2c1 [Compound 30, 4-(5-Imidazol-1-ylmethyl-pyridin-2-yl)-isoquinoline] | 914 nM | 10 | 95 nM |  |  | 
24 | Clc1ccc(-c2ccc(Cn3ccnc3)cn2)s1 [Compound 33, 2-(5-Chloro-thiophen-2-yl)-5-imidazol-1-ylmethyl-pyridine] | 929 nM | 2.6 | 362 nM |  |  | 
25 | c1ccc2sc(-c3ccc(Cn4ccnc4)cn3)cc2c1 [Compound 37, 2-Benzo[b]thiophen-2-yl-5-imidazol-1-ylmethyl-pyridine] | 281 nM | 1.0 | 269 nM |  |  | 
26 | c1ccc2oc(-c3ccc(Cn4ccnc4)cn3)cc2c1 [Compound 41, 2-Benzo[b]furan-2-yl-5-imidazol-1-ylmethyl-pyridine] | > 1000 nM |  | 500 nM |  |  | 
27 | CCOC(=O)c1cncn1[C@H](C)c1ccccc1 [ETO, etomidate, reference compound] | 0.1 nM |  |  |  |  | 
